Laboratory results from patent publication US10183019B2, “Treatment of cancer with dihydropyrazino-pyrazines” (Signal Pharmaceuticals, LLC, priority 2013, dated 2019).
pIC50: −log10 of the molar value.

Legend:
[1] = tested on: patient-derived GBM cell line 217; assay: Gliomasphere Formation Assay; assay type: cell-based; conditions: cell line 217, Primary; 50% sphere formation vs DMSO control
Description: (§1) Primary patient-derived GBM tumor samples were dissociated and plated under culture conditions (i.e. DMEM/F12 medium supplemented with B27, 20 ng/mL bFGF, 50 ng/mL EGF, penicillin/streptomycin, L-glutamine and 5 ug/mL heparin) that produce gliomaspheres. Cells were plated at a density of 50 cells per well and allowed to acclimate overnight at 37° C. The Dihydropyrazino-Pyrazine Compounds were added to the cultures on Day 2 and replenished every 7 days. EGF and FGF were also replenished every 7 days. The cells were fixed with PFA/methanol when the smallest sphere was greater than 60 microns, typically 3-5 weeks. The cells were fixed with PFA/methanol and the next day assessed for cell number, using for example, SYTO-9 fluorescent DNA dye. Plates were read 48 h later with a laser scanning imager.

[2] = tested on: patient-derived GBM cell line 350; assay: Gliomasphere Formation Assay; assay type: cell-based; conditions: cell line 350, Recurrent; 50% sphere formation vs DMSO control
Description: as §1

[3] = tested on: patient-derived GBM cell line 296; assay: Gliomasphere Formation Assay; assay type: cell-based; conditions: cell line 296, Recurrent, MGMT status −; 50% sphere formation vs DMSO control
Description: as §1

[4] = tested on: patient-derived GBM cell line 245; assay: Gliomasphere Formation Assay; assay type: cell-based; conditions: cell line 245, Recurrent; 50% sphere formation vs DMSO control
Description: as §1

[5] = tested on: patient-derived GBM cell line 308; assay: Gliomasphere Formation Assay; assay type: cell-based; conditions: cell line 308, Recurrent, MGMT Unkn/Highly Expressed; 50% sphere formation vs DMSO control
Description: as §1

[6] = tested on: HF2354 PDX (GBM neurosphere line HF2354); assay: Patient derived xenograft (PDX) survival study; assay type: in vivo, nude mouse; conditions: HF2354 PDX in nude mice; 10 mg/kg oral gavage once a day, Monday through Friday
Description: FIG. 2: Kaplan-Meier survival analysis for HF2354 PDX line (end of study). Treatment schedule for survival (Rx) and target hit (TH) are indicated.
Immunocompromised mice (nude mouse NCRNU-M, TACONIC) were implanted with a GBM neurosphere line derived from fresh surgical specimens. The cell line was characterized as following:
Patient derived xenograft (PDX) treatments started four weeks prior to when the first animal was expected to become symptomatic. […] Control animals were administered vehicle alone. Target hit cohorts were treated with one dose of each compound and sacrificed 2 and 24 h later (n=3/group). As necessary, fluids and supplemental food were administered to ameliorate weight loss.

[7] = tested on: patient-derived GBM cell line 336; assay: Gliomasphere Cell Number Assay; assay type: cell-based; conditions: cell line 336, Recurrent, MGMT status +; 50% cell numbers vs DMSO control, Day 2 to Day 9; read-out: IC50 Cell Survival
Description: (§2) Gliomasphere Cell Number Assay. Primary patient-derived GBM tumor samples were dissociated and plated under culture conditions that produce gliomaspheres (i.e. DMEM/F12 medium supplemented with B27, 20 ng/mL bFGF, 50 ng/mL EGF, penicillin/streptomycin, L-glutamine and 5 ug/mL heparin). Cells were plated at a density of 5000 cells/well and allowed to acclimate overnight at 37° C. The Dihydropyrazino-Pyrazine Compounds were added to the cultures on Day 2 and cells were kept in culture until Day 9. On Day 9, the cells were fixed with PFA/methanol and the next day assessed for cell number, using for example, SYTO-9 fluorescent DNA dye. Plates were read 48 h later with a laser scanning imager.

[8] = tested on: patient-derived GBM cell line 217; assay: Gliomasphere Cell Number Assay; assay type: cell-based; conditions: cell line 217, Primary; 50% cell numbers vs DMSO control, Day 2 to Day 9; read-out: IC50 Cell Survival
Description: as §2

[9] = tested on: patient-derived GBM cell line 347; assay: Gliomasphere Cell Number Assay; assay type: cell-based; conditions: cell line 347, Recurrent, MGMT status −; 50% cell numbers vs DMSO control, Day 2 to Day 9; read-out: IC50 Cell Survival
Description: as §2

[10] = tested on: patient-derived GBM cell line 206; assay: Gliomasphere Cell Number Assay; assay type: cell-based; conditions: cell line 206, Recurrent, MGMT Unkn/Highly Expressed; 50% cell numbers vs DMSO control, Day 2 to Day 9; read-out: IC50 Cell Survival
Description: as §2

[11] = tested on: patient-derived GBM cell line 277; assay: Gliomasphere Cell Number Assay; assay type: cell-based; conditions: cell line 277, Secondary/Recurrent; 50% cell numbers vs DMSO control, Day 2 to Day 9; read-out: IC50 Cell Survival
Description: as §2

[12] = tested on: patient-derived GBM cell line 157; assay: Gliomasphere Cell Number Assay; assay type: cell-based; conditions: cell line 157, Primary, MGMT status −; 50% cell numbers vs DMSO control, Day 2 to Day 9; read-out: IC50 Cell Survival
Description: as §2

[13] = tested on: patient-derived GBM cell line 250; assay: Gliomasphere Cell Number Assay; assay type: cell-based; conditions: cell line 250, Recurrent, MGMT Unkn/Highly Expressed; 50% cell numbers vs DMSO control, Day 2 to Day 9; read-out: IC50 Cell Survival
Description: as §2

[14] = tested on: patient-derived GBM cell line 296; assay: Gliomasphere Cell Number Assay; assay type: cell-based; conditions: cell line 296, Recurrent, MGMT status −; 50% cell numbers vs DMSO control, Day 2 to Day 9; read-out: IC50 Cell Survival
Description: as §2

[15] = tested on: patient-derived GBM cell line 254; assay: Gliomasphere Cell Number Assay; assay type: cell-based; conditions: cell line 254, Recurrent; 50% cell numbers vs DMSO control, Day 2 to Day 9; read-out: IC50 Cell Survival
Description: as §2

[16] = tested on: patient-derived GBM cell line 378; assay: Gliomasphere Cell Number Assay; assay type: cell-based; conditions: cell line 378, Recurrent, MGMT status −; 50% cell numbers vs DMSO control, Day 2 to Day 9; read-out: IC50 Cell Survival
Description: as §2

[17] = tested on: patient-derived GBM cell line 217; assay: Combination effect of Compound 1 and TMZ on cell survival (fractional product); assay type: cell-based; conditions: 168 h, 7 days, read-out: % Actual inh.
Description: (§3) TMZ is an alkylating agent that delivers a methyl group to the purine bases of DNA (O^6-guanine; N^7-guanine and N^3-adenine). The cytotoxic lesion, O^6-methylguanine (O^6-MeG), caused by TMZ can be directly removed by methylguanine methyltransferase (MGMT) via direct repair and can also activate mechanisms of mismatch repair (MMR). Futile cycles of MMR lead to the formation of double-stranded DNA breaks and activation of the DNA-PK mediated mechanisms of double-stranded break repair.
(§4) Tumorspheres grown under tumorsphere culture conditions were harvested, dissociated into single cells, and plated at 5,000 cells/well in 96-well plates. […] When the value of the column % actual inhibition divided by % inhibition calculated based on summation is >1=synergism, ˜1=summation, <1=antagonism.

[18] = tested on: patient-derived GBM cell line 206; assay: as above; assay type: cell-based; conditions: 168 h, 7 days, read-out: % Actual inh.
Description: as §3, §4

CO[C@H]1CC[C@H](N2C(=O)CNc3ncc(-c4ccc(C(C)(C)O)nc4)nc32)CC1 [Compound 2, 7-(6-(2-hydroxypropan-2-yl)pyridin-3-yl)-1-((1r,4r)-4-methoxycyclohexyl)-3,4-dihydropyrazino-[2,3-b]pyrazin-2(1H)-one]
pIC50 [1]: 7.16 | pIC50 [2]: 6.61 | pIC50 [3]: 5.77 | pIC50 [4]: 7.19 | pIC50 [5]: 7.12 | survival (Kaplan-Meier) [6]: No effect in survival | pIC50 [7]: 6.06 | pIC50 [8]: 7.02 | pIC50 [9]: 6.76 | pIC50 [10]: 6.93 | pIC50 [11]: 6.97 | pIC50 [12]: 6.77 | pIC50 [13]: 7.29 | pIC50 [14]: 6.59 | pIC50 [15]: 6.67 | pIC50 [16]: 6.81

Cn1nnc2c(C(N)=O)ncn2c1=O [TMZ, Temozolomide]
inhibition at 25 µM ([17]; TMZ 25 μM alone): 69% | inhibition at 50 µM ([17]; TMZ 50 μM alone): 73% | inhibition at 100 µM ([17]; TMZ 100 μM alone): 77% | inhibition at 25 µM ([18]; TMZ 25 μM alone): 11.4% | inhibition at 50 µM ([18]; TMZ 50 μM alone): 0% | inhibition at 100 µM ([18]; TMZ 100 μM alone): 0% | inhibition at 200 µM ([18]; TMZ 200 μM alone): 4.3%
